Measured values as given in patent US20260242738A1, “ALK5 INHIBITORS FOR EFFICIENT DERIVATION OF MESENCHYMAL STEM CELLS FROM EMBRYONIC STEM CELLS” (SCRIPPS HEALTH, priority 2022, published 2026).

What was measured:
ES-MSC = ES-MSC on pneumatospun collagen type I scaffold, in vitro culture; type: cell-based, human; conditions: 6 weeks in chondrogenic medium
Description: ES-MSC derived from treatment with ALK-5 inhibitor SB525334, as described in Example 1, produced meniscus cartilage-like tissues when seeded upon blow spun collagen scaffolds in in vitro and in vivo.

ES-MSC microspheroids = assay: Microspheroid building chamber neo-cartilage formation; type: cell-based, human; conditions: 3 weeks in chamber
Description: Using a microspheroid building block approach, ES-MSC derived from treatment with ALK-5 inhibitor SB525334, as described in Example 1, were used to produce bone and cartilage (osteochondral) tissues. […] The OC tissue unit was implanted into an ex vivo model to develop biphasic tissue with an upper cartilage and lower calcified cartilage layer (FIG. 11, panels J-M). Both upper and lower tissues were Safranin O and collagen type II positive (FIG. 11, panels J-K), while the lower tissue producing calcified neo tissue (FIG. 11, panel L; von Kossa positive) and osteopontin (FIG. 11, panel M).

HAD ES-MSC = assay: Fibrin-ECM hydrogel construct culture on needle array; type: cell-based, human; conditions: 20×10^6 cells per ml, 3 weeks of culture, N=8
Procedure: Monolayer cultured ES-MSC were suspended in a hydrogel wafer composed of collagen II (Innovative Research Inc. Novi, MI), hyaluronate (Supartz FX sodium hyaluronate, Seikagaku Corp. Tokyo, Japan), chondroitin sulfate (Sigma-Aldrich) and fibrin (Baxter Healthcare, Deerfield, IL) at a density of 20×10^6 cells per ml. The fibrinogen and thrombin components were prepared separately. To each fibrinogen component, 2 mg/ml sodium hyaluronate, 2 mg/ml chondroitin sulfate and 6 mg/ml collagen II was added (2× concentration of final). Cells were added to the thrombin component at a density of 40×10^6 cells per ml. Thrombin and fibrinogen components in individual syringes were attached to a Baxter DUO mixing syringe and extruded to form the coagulated constructs. The constructs were either directly implanted into ex vivo cartilage tissue or coagulated in 6 well tissue culture plates for 4 to 8 minutes before 4-6 ml of chondrogenic medium was added. To prevent shrinkage of the constructs during culture, the gels were held on AdminPatch microneedle arrays (AdminMed, Sunnyvale, CA) for the duration of their culture.
Cell pellets and explants were fixed in Z-Fix (3.7% formaldehyde, Anatech Ltd., Battle Creek, MI), processed for embedding in paraffin, and cut into 4 μm-thick sections. Sections were stained with Safranin-O and Fast Green to visualize glycosaminoglycan distribution in the tissues. […]

HADC100 ESC = assay: Gene expression of ES-MSC in monolayer culture; type: cell-based, human; conditions: comparison of ALK5 inhibitors
Procedure: An overview of the differentiation process is provided in FIG. 1, panel K. To create cell clusters or embryoid bodies of uniform size, ESCs were removed from CellStart culture using Accutase® for 2-5 minutes until single cells were observed. Cells (2.5-3×10^5 cells per ml) were suspended in StemPro human ESC serum free medium (ThermoFisher) with 10 μM Y-27632 (EMD Chemicals, Gibbstown, NJ) and 40 ng/ml FGF (Life Technologies, Carlsbad, CA) in a 125 ml spinner culture flask (Corning Inc., Corning, NY) on a magnetic stirrer (CimarecTM Biosystem Slow-Speed Stirrer, ThermoFisher) at 70 rpm for 24 hours at 37° C. with 5% CO2 to form small cell clusters (minimum total cells was 7.5×10^6 in 30 ml). After 24 hours, the cell clusters were suspended at 2.5-3×10^5 cells per ml in ultra-low adherent 6 well plates (Corning) in […] free medium (ThermoFisher) supplemented with 2 mM L-glutamine (ThermoFisher Scientific), 50 μg/ml Ascorbic acid (Stemcell Technologies, Vancouver, Canada) and 1.8 μl/ml ITS-G (100× Insulin-Transferrin-Selenium; ThermoFisher); termed as “complete SP-34 medium”. […] Expression of the following genes was quantified POU5F1/OCT4 and SOX2 (for pluripotency); FOXA1 and SOX17 (for endoderm); NES and PAX6 (for ectoderm); NKX2-5, MSX1, NCAM1, and SOX9 (for mesoderm); ITGB1/CD29 (for MSC phenotype); and COL1A1, COL2A1, COL10A1, COMP, ACAN, and SOX9 and RUNX2 (for chondrogenesis). […]

H9 ES-MSC = assay: Pellet culture chondrogenesis, histology and immunohistochemistry; type: cell-based, human; conditions: 3 weeks, Safranin-O, collagen type I and II
Procedure: Monolayer-expanded ES-MSC (passage 2-5) were detached using Accutase® and 0.5×10^6 cells in 0.5 ml of chondrogenic medium were centrifuged at 900 rpm (~770 G) for 5 minutes to form high-density pellets. At least 5-6 pellets, for each ES-MSC condition, were cultured in serum-free chondrogenic medium consisting of Dulbecco's Modified Eagle Medium (Mediatech Inc., Manassas, VA), 1×ITS supplement (Sigma-Aldrich, St. Louis, MO), 100 nM Dexamethasone (Sigma), 1.25 mg/ml human serum albumin (Bayer, Leverkusen, Germany), 100 μM ascorbic acid 2-phosphate (Sigma), 1% penicillin/streptomycin/gentamycin (PSG, Gibco, Carlsbad, CA), and 10 ng/ml TGFβ3 (PeproTech, Rocky Hill, NJ). Pellets for ex vivo implantation were cultured for 3 days before implantation; pellets for histologic or gene expression analysis were maintained in culture for 3 weeks with media changes every 3 to 4 days.
Cell pellets and explants were fixed in Z-Fix (3.7% formaldehyde, Anatech Ltd., Battle Creek, MI), processed for embedding in paraffin, and cut into 4 μm-thick sections. Sections were stained with Safranin-O and Fast Green to visualize glycosaminoglycan distribution in the tissues. Alzarin Red S staining was used to detect the presence of mineralized matrix.
For assessment of collagen types I and II, sections were pretreated with pepsin (Digest-All 3, Thermo Fisher Scientific) for 9 minutes at 37° C. in a humid chamber before incubation at 4° C. for 12 to 16 hours with the following primary antibodies: rabbit anti-human collagen type I antibody (Ab 34710, Abcam, Cambridge, MA) 1 μg/ml; or mouse anti-human collagen type II (II-II6B3, Hybridoma Bank, University of Iowa) 2 μg/ml. For color development, the ImmPRESS secondary DAB (brown) or AP (red) kits (Vector Laboratories, Burlingame, CA) was used. Isotype controls were used to monitor non-specific staining.

[1] = test system: ESC cell lines (H9, AND-1, AND-2, and SHEF-1); conditions: monolayer cultures on Matrigel coated flasks, before sorting; cited from earlier work

Row | Compound | Safranin O staining (GAG deposition) on collagen scaffold (ES-MSC) | cartilage GAGs staining of neo-cartilage tissue (ES-MSC microspheroids) | collagen type II staining of neo-cartilage tissue (ES-MSC microspheroids) | cartilaginous tissue in fibrin-ECM construct (Safranin O fast green) (HAD ES-MSC) | generating mesoderm markers (NCAM1, SOX9) and increasing COL2A1 expression (HADC100 ESC) | cartilage-like tissue formation in high density pellets (H9 ES-MSC) | CD73+CD90+CD34− cell population [1] [%]
1 | Cc1cccc(-c2[nH]c(C(C)(C)C)nc2-c2ccc3nccnc3c2)n1 [SB525334] | extensive GAG deposition | positive for cartilage GAGs | positive for collagen type II |  |  |  | 
2 | NC(=O)c1ccc(-c2nc(-c3ccc4c(c3)OCO4)c(-c3ccccn3)[nH]2)cc1 [SB431542] |  |  |  | production of cartilaginous tissue | superior | consistently produced cartilage like-tissue | 42
